Measured values from patent publication US7993917B2, “Method for obtaining a cellular product from a cell or a tissue using protein-free medium” (The United States of America as represented by the …, priority 1999, dated 2011).
Where two headings read alike, the source gives them in different places. Each block holds one compound with its values, some of them ahead of it.

System: P. falciparum isolates
Assay: 48 hour parasite lactate dehydrogenase (48 hr pLDH) drug sensitivity assay after transport from the field on ice in BAM
Format: cell-based
Conditions: Plasmodium falciparum
Experimental: Malaria parasites fail to thrive after removal from the patient. They can be preserved either by cryopreservation in liquid nitrogen or storage at −70° C. These techniques used for long term storage are too labor-intensive and expensive for routine use. […] Transit time can vary between a few hours to less than a week. Because of the clinical demand for such a service, BAM was evaluated in the field as a transport medium for malaria parasites.

[1] = 24 h, isolate 1107, 1 day in transit, read-out: IC50
[2] = 24 h, isolate 1236, 1 day in transit, read-out: IC50
[3] = 24 h, isolate A116, 1 day in transit, read-out: IC50
[4] = 24 h, isolate A246, 1 day in transit, read-out: IC50
[5] = 24 h, isolate A296, 1 day in transit, read-out: IC50
[6] = 24 h, isolate B236, 1 day in transit, read-out: IC50
[7] = 24 h, isolate C67, 1 day in transit, read-out: IC50
[8] = 24 h, isolate C107, 1 day in transit, read-out: IC50
[9] = 24 h, isolate C166, 1 day in transit, read-out: IC50
[10] = 24 h, isolate D86, 1 day in transit, read-out: IC50
[11] = 24 h, isolate D107, 1 day in transit, read-out: IC50
[12] = 24 h, isolate D296, 1 day in transit, read-out: IC50
[13] = 24 h, isolate E107, 1 day in transit, read-out: IC50
[14] = 24 h, isolate F166, 1 day in transit, read-out: IC50
[15] = 24 h, isolate F296, 1 day in transit, read-out: IC50
[16] = 24 h, isolate G17, 1 day in transit, read-out: IC50
[17] = 24 h, isolate G236, 1 day in transit, read-out: IC50
[18] = 24 h, isolate H107, 1 day in transit, read-out: IC50
[19] = 24 h, isolate J107, 1 day in transit, read-out: IC50
[20] = 24 h, isolate K107, 1 day in transit, read-out: IC50
[21] = 24 h, isolate KilH, 1 day in transit, read-out: IC50
[22] = 24 h, isolate KilS, 1 day in transit, read-out: IC50
[23] = 24 h, isolate L107, 1 day in transit, read-out: IC50
[24] = 24 h, isolate L137, 1 day in transit, read-out: IC50
[25] = 48 h, isolate B116, 2 days in transit, read-out: IC50
[26] = 48 h, isolate B296, 2 days in transit, read-out: IC50
[27] = 48 h, isolate C108, 2 days in transit, read-out: IC50
[28] = 48 h, isolate G296, 2 days in transit, read-out: IC50
[29] = 48 h, isolate H236, 2 days in transit, read-out: IC50
[30] = 48 h, isolate R107, 2 days in transit, read-out: IC50

IC50 [1]: 6.6 nM | IC50 [2]: 26.8 nM | IC50 (24 h, isolate A67, 1 day in transit, read-out: IC50): 37.6 nM | IC50 (24 h, isolate A107, 1 day in transit, read-out: IC50): 91.8 nM | IC50 [3]: 70.2 nM | IC50 [4]: 17 nM | IC50 [5]: 152 nM | IC50 [6]: 28.8 nM | IC50 [7]: 117 nM | IC50 [8]: 179 nM | IC50 [9]: 68 nM | IC50 [10]: 29.8 nM | IC50 [11]: 178 nM | IC50 [12]: 180 nM | IC50 [13]: 152 nM | IC50 (24 h, isolate F107, 1 day in transit, read-out: IC50): 23.6 nM | IC50 [14]: 91.6 nM | IC50 [15]: 202 nM | IC50 [16]: 40.8 nM | IC50 [17]: 33.8 nM | IC50 [18]: 100 nM | IC50 [19]: 12.6 nM | IC50 [20]: 35.4 nM | IC50 [21]: 125 nM | IC50 [22]: 128 nM | IC50 [23]: 18.4 nM | IC50 [24]: 150 nM | IC50 (48 h, isolate B106, 2 days in transit, read-out: IC50): 99.2 nM | IC50 [25]: 145 nM | IC50 [26]: 53.4 nM | IC50 [27]: 86.2 nM | IC50 (48 h, isolate D166, 2 days in transit, read-out: IC50): 6.6 nM | IC50 [28]: 179 nM | IC50 [29]: 8.6 nM | IC50 [30]: 79.8 nM
SMILES: CCN(CC)Cc1cc(Nc2ccnc3cc(Cl)ccc23)ccc1O [Amodiaquine, amodiaquine]

IC50 (24 h, isolate 1107, 1 day in transit): 160 nM | IC50 (24 h, isolate 1236, 1 day in transit): 22.2 nM | IC50 (24 h, isolate A67, 1 day in transit): 191 nM | IC50 (24 h, isolate A107, 1 day in transit): 818 nM | IC50 (24 h, isolate A116, 1 day in transit): 58.4 nM | IC50 (24 h, isolate A246, 1 day in transit): 20 nM | IC50 (24 h, isolate A296, 1 day in transit): 115 nM | IC50 (24 h, isolate B236, 1 day in transit): 90.6 nM | IC50 (24 h, isolate C67, 1 day in transit): 143 nM | IC50 (24 h, isolate C107, 1 day in transit): 554 nM | IC50 (24 h, isolate C166, 1 day in transit): 30.8 nM | IC50 (24 h, isolate D86, 1 day in transit): 33.2 nM | IC50 (24 h, isolate D107, 1 day in transit): 502 nM | IC50 (24 h, isolate E67, 1 day in transit): 50 nM | IC50 (24 h, isolate E107, 1 day in transit): 554 nM | IC50 (24 h, isolate F107, 1 day in transit): 818 nM | IC50 (24 h, isolate F166, 1 day in transit): 29.8 nM | IC50 (24 h, isolate F296, 1 day in transit): 66.4 nM | IC50 (24 h, isolate G17, 1 day in transit): 52 nM | IC50 (24 h, isolate G236, 1 day in transit): 330 nM | IC50 (24 h, isolate H107, 1 day in transit): 180 nM | IC50 (24 h, isolate J107, 1 day in transit): 294 nM | IC50 (24 h, isolate K107, 1 day in transit): 300 nM | IC50 (24 h, isolate KilH, 1 day in transit): 248 nM | IC50 (24 h, isolate KilS, 1 day in transit): 122 nM | IC50 (24 h, isolate L107, 1 day in transit): 224 nM | IC50 (24 h, isolate L137, 1 day in transit): 320 nM | IC50 (48 h, isolate B106, 2 days in transit): 294 nM | IC50 (48 h, isolate B116, 2 days in transit): 35.2 nM | IC50 (48 h, isolate B296, 2 days in transit): 664 nM | IC50 (48 h, isolate C108, 2 days in transit): 256 nM | IC50 (48 h, isolate G296, 2 days in transit): 400 nM | IC50 (48 h, isolate H236, 2 days in transit): 91.4 nM | IC50 (48 h, isolate R107, 2 days in transit): 78.8 nM
SMILES: CCN(CC)CCCC(C)Nc1ccnc2cc(Cl)ccc12 (stereo not shown) [Chloroquine, chloroquine]

IC50 [1]: 40 nM | IC50 [2]: 0.04 nM | IC50 [3]: 152 nM | IC50 [4]: 16.3 nM | IC50 [5]: 476 nM | IC50 [6]: 183 nM | IC50 [7]: 136 nM | IC50 [8]: 96.4 nM | IC50 [9]: 165 nM | IC50 [10]: 175 nM | IC50 [11]: 264 nM | IC50 [12]: 999 nM | IC50 (24 h, isolate E67, 1 day in transit, read-out: IC50): 108 nM | IC50 [13]: 230 nM | IC50 [14]: 93.2 nM | IC50 [15]: 99.2 nM | IC50 [16]: 143 nM | IC50 [17]: 304 nM | IC50 [18]: 28 nM | IC50 [19]: 55.4 nM | IC50 [20]: 354 nM | IC50 [21]: 378 nM | IC50 [22]: 187 nM | IC50 [23]: 58.8 nM | IC50 [24]: 134 nM | IC50 [25]: 136 nM | IC50 [26]: 1.8 nM | IC50 [27]: 160 nM | IC50 [28]: 306 nM | IC50 [29]: 208 nM | IC50 [30]: 472 nM
SMILES: C=C[C@H]1C[N@@]2CC[C@H]1C[C@H]2[C@H](O)c1ccnc2ccc(OC)cc12 [Quinine, quinine]
